# Reference: PubChem BioAssay AID2060901 (Molecular Pharmacology Branch, DTP, NCI, 2025)
# Test system: 422866-222-R5-J1-PDC complex spheroids viability
# Experiment: Anticancer human tumor 422866-222-R5-J1-PDC patient-derived pancreatic adenocarcinoma cell line growth inhibition [RAS]
# Conditions: for IC50: curve of first compound; for viability, T/C: stronger effect = lower value
# In short: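 Multi-cell-type spheroids: tumor cells plus HUVEC endothelial cells and mesenchymal stem cells. RAS-pathway inhibitors were combined with targeted agents, each dosed in half-log steps down from clinical Cmax, or from 10 microM when Cmax was unknown.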
# 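Also: spheroids exposed to compounds for 7 days.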
# 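For viability, T/C in this document: 100% = DMSO vehicle control viability.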
smiles,measurement,setting,value
O=C(c1ccc(F)c(F)c1Nc1ccc(I)cc1F)N1CC(O)([C@@H]2CCCCN2)C1 + CCn1c(-c2cc(N3CCN(C)CC3)cnc2C(C)OC)c2c3cc(ccc31)-c1csc(n1)CC(NC(=O)C1CC1C)C(=O)N1CCCC(N1)C(=O)OCC(C)(C)C2,IC50,second compound 0.000949 µM,< 3.16 nM
same,IC50,second compound 0.003 µM,< 3.16 nM
same,IC50,second compound 0.00949 µM,< 3.16 nM
same,IC50,second compound 0.03 µM,< 3.16 nM
same,IC50,second compound 0.0949 µM,< 3.16 nM
same,IC50,second compound 0.3 µM,< 3.16 nM
same,"viability, T/C","second compound 0.000949 µM, first compound 0.00316 µM",30.9%
same,"viability, T/C","second compound 0.000949 µM, first compound 0.01 µM",27.3%
same,"viability, T/C","second compound 0.000949 µM, first compound 0.0316 µM",21.8%
same,"viability, T/C","second compound 0.000949 µM, first compound 0.1 µM",20.4%
same,"viability, T/C","second compound 0.000949 µM, first compound 0.316 µM",15%
same,"viability, T/C","second compound 0.000949 µM, first compound 1 µM",14.4%
same,"viability, T/C","second compound 0.003 µM, first compound 0.00316 µM",22.9%
same,"viability, T/C","second compound 0.003 µM, first compound 0.01 µM",19.1%
same,"viability, T/C","second compound 0.003 µM, first compound 0.0316 µM",16.2%
same,"viability, T/C","second compound 0.003 µM, first compound 0.1 µM",13.3%
same,"viability, T/C","second compound 0.003 µM, first compound 0.316 µM",13.4%
same,"viability, T/C","second compound 0.003 µM, first compound 1 µM",15.1%
same,"viability, T/C","second compound 0.00949 µM, first compound 0.00316 µM",16%
same,"viability, T/C","second compound 0.00949 µM, first compound 0.01 µM",14.8%
same,"viability, T/C","second compound 0.00949 µM, first compound 0.0316 µM",14.5%
same,"viability, T/C","second compound 0.00949 µM, first compound 0.1 µM",11.9%
same,"viability, T/C","second compound 0.00949 µM, first compound 0.316 µM",11.9%
same,"viability, T/C","second compound 0.00949 µM, first compound 1 µM",13.6%
same,"viability, T/C","second compound 0.03 µM, first compound 0.00316 µM",14.3%
same,"viability, T/C","second compound 0.03 µM, first compound 0.01 µM",13.4%
same,"viability, T/C","second compound 0.03 µM, first compound 0.0316 µM",13.2%
same,"viability, T/C","second compound 0.03 µM, first compound 0.1 µM",13.8%
same,"viability, T/C","second compound 0.03 µM, first compound 0.316 µM",13.9%
same,"viability, T/C","second compound 0.03 µM, first compound 1 µM",14.9%
same,"viability, T/C","second compound 0.0949 µM, first compound 0.00316 µM",15.2%
same,"viability, T/C","second compound 0.0949 µM, first compound 0.01 µM",16%
same,"viability, T/C","second compound 0.0949 µM, first compound 0.0316 µM",13.4%
same,"viability, T/C","second compound 0.0949 µM, first compound 0.1 µM",13.8%
same,"viability, T/C","second compound 0.0949 µM, first compound 0.316 µM",14.5%
same,"viability, T/C","second compound 0.0949 µM, first compound 1 µM",15.3%
same,"viability, T/C","second compound 0.3 µM, first compound 0.00316 µM",16.7%
same,"viability, T/C","second compound 0.3 µM, first compound 0.01 µM",14.9%
same,"viability, T/C","second compound 0.3 µM, first compound 0.0316 µM",15%
same,"viability, T/C","second compound 0.3 µM, first compound 0.1 µM",15.1%
same,"viability, T/C","second compound 0.3 µM, first compound 0.316 µM",15.7%
same,"viability, T/C","second compound 0.3 µM, first compound 1 µM",15.6%
